For the series the following is noted: Crystal; visual observation.

± gives the expanded uncertainty stated by the source.

Turning to `Nc1ccc(S(=O)(=O)O)cc1` [4-aminobenzenesulfonic acid], the Normal melting temperature amounted to 288.0 ± 0.5 °C.

The values are drawn from the NIST ThermoML archive (doi:10.1021/je500867u).
